# Experiments:
# Aphidius rhopalosiphi = experiment: LR50; higher = less toxic; settings: not reported; mortality
# Daphnia magna = settings: chronic/long-term; duration: 21 days; reproduction
# Anatidae = settings: short-term; oral; feed; mortality
# Canidae = settings: chronic; duration: 2 years; oral; Dog Other; clinical chemistry
# Apis mellifera = settings: acute, mortality
# Typhlodromus pyri = settings: not reported; reproduction
compound,measurement,setting,value
CCOP(=O)=O.CCOP(=O)=O.CCOP(=O)=O.[Al+3] [Fosetyl aluminum],LR50,Aphidius rhopalosiphi,> 64000 g/ha
same,NOEC,Daphnia magna,17 mg/L
same,LC50,Anatidae,> 3540 mg/kg-day
same,NOAEL,Canidae,300 mg/kg-day
same,LD50,Apis mellifera; dermal,> 1000 µg/piece
same,LD50,"Apis mellifera; duration: 48 hours, oral, unspecified",462 µg/piece
same,LEL,Typhlodromus pyri,15000 g/ha
same,LC50,"Oncorhynchus mykiss; acute, duration: 96 hours, mortality",> 60 µg/mL
same,NOEC,"Oncorhynchus mykiss; chronic/long-term, duration: 28 days, growth",100 mg/L
same,LD50,"acute, mortality",> 7080 mg/kg
same,NOEC,"reproductive, oral, feed",439 mg/kg-day
same,LC50,"Tagia sp.; acute, mortality",> 1000 mg/kg
same,NOEC,"Tagia sp.; chronic/long-term, reproduction",1670 mg/kg
same,LD50,"Coturnix coturnix; acute, oral, mortality",5000 mg/kg
same,NOEC,Coturnix coturnix; reproduction developmental,216 mg/kg-day
same,NOAEL,"Rattus norvegicus; chronic, duration: 2 years, oral, clinical chemistry",300 mg/kg-day
same,NOAEL,"Rattus norvegicus; subchronic, duration: 90 days, histopathology: nonneoplastic",500 mg/kg-day

# Reference: EPA's ToxValDB 9.5 (doi:10.2903/j.efsa.2006.54)
